Assay results from ChEMBL document CHEMBL1201862, “PubChem BioAssay data set” (2004).
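Protocol summary: plate cells (96-well), add compound at 5 concentrations, incubate 48 h, interpolate endpoints linearly. GI50 is the concentration that inhibits growth by half.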 Active and inactive are the calls of the source. No stated cut-off is given here; in the data, active = GI50 up to about 1.1 µM and inactive = higher.

Key:
Experiment in all cases: NCI-60 cell line screen, 48 h
[1] = test system: M14
[2] = test system: OVCAR-4
[3] = test system: SF-295
[4] = test system: OVCAR-3
[5] = test system: A498
[6] = test system: T47D
[7] = test system: EKVX
[8] = test system: CAKI-1
[9] = test system: SK-MEL-28
[10] = test system: NCI-H460
[11] = test system: PC-3
[12] = test system: SF-539
[13] = test system: RPMI-8226
[14] = test system: SK-MEL-5
[15] = test system: SK-MEL-2
[16] = test system: HOP-62
[17] = test system: 786-0
[18] = test system: COLO 205
[19] = test system: SF-268
[20] = test system: NCI/ADR-RES
[21] = test system: MDA-MB-435
[22] = test system: DU-145
[23] = test system: SN12C
[24] = test system: NCI-H522
[25] = test system: U-251
[26] = test system: SW-620
[27] = test system: Hs-578T
[28] = test system: SK-OV-3
[29] = test system: MDA-MB-231
[30] = test system: ACHN
[31] = test system: UACC-257
[32] = test system: UO-31
[33] = test system: NCI-H23
[34] = test system: OVCAR-5
[35] = test system: HCT-116
[36] = test system: A549
[37] = test system: BT-549
[38] = test system: HCT-15
[39] = test system: RXF 393
[40] = test system: MOLT-4
[41] = test system: MDA-N
[42] = test system: KM12
[43] = test system: MCF7
[44] = test system: UACC-62
[45] = test system: K562
[46] = test system: OVCAR-8
[47] = test system: SNB-75
[48] = test system: TK-10
[49] = test system: SNB-19
[50] = test system: HOP-92
[51] = test system: HCC 2998
[52] = test system: CCRF-CEM
[53] = test system: IGROV-1
[54] = test system: LOX IMVI
[55] = test system: NCI-H226
[56] = test system: Malme-3M
[57] = test system: HT-29

COc1ccccc1N1CCN(S(=O)(=O)c2ccc(Cl)cc2)C1=N
GI50 [1]: 26.2 µM (inactive)
GI50 [2]: 87.9 µM (inactive)
GI50 [3]: > 100 µM (inactive)
GI50 [4]: 97.9 µM (inactive)
GI50 [5]: > 100 µM (inactive)
GI50 [6]: 68.7 µM (inactive)
GI50 [7]: 26.9 µM (inactive)
GI50 [8]: > 100 µM (inactive)
GI50 [9]: 75 µM (inactive)
GI50 [10]: 33.4 µM (inactive)
GI50 [11]: 56.8 µM (inactive)
GI50 [12]: 81.3 µM (inactive)
GI50 [13]: 93.8 µM (inactive)
GI50 [14]: 56.2 µM (inactive)
GI50 [15]: 57.4 µM (inactive)
GI50 [16]: > 100 µM (inactive)
GI50 [17]: 99.5 µM (inactive)
GI50 [18]: 73.6 µM (inactive)
GI50 [19]: > 100 µM (inactive)
GI50 [20]: 61.2 µM (inactive)
GI50 [21]: 45.9 µM (inactive)
GI50 [22]: 47.5 µM (inactive)
GI50 [23]: > 100 µM (inactive)
GI50 [24]: 40.5 µM (inactive)
GI50 [25]: 37.5 µM (inactive)
GI50 [26]: 64.6 µM (inactive)
GI50 [27]: 78 µM (inactive)
GI50 [28]: > 100 µM (inactive)
GI50 [29]: 37.1 µM (inactive)
GI50 [30]: 48.9 µM (inactive)
GI50 [31]: 41.6 µM (inactive)
GI50 [32]: 33.3 µM (inactive)
GI50 [33]: 60 µM (inactive)
GI50 [34]: 22.4 µM (inactive)
GI50 [35]: 27.9 µM (inactive)
GI50 [36]: 34.2 µM (inactive)
GI50 [37]: > 100 µM (inactive)
GI50 [38]: 62.4 µM
GI50 [39]: > 100 µM (inactive)
GI50 [40]: 43 µM (inactive)
GI50 [41]: 49.3 µM (inactive)
GI50 [42]: 82.4 µM (inactive)
GI50 [43]: 52.2 µM (inactive)
GI50 [44]: 26.3 µM (inactive)
GI50 [45]: 61.7 µM (inactive)
GI50 [46]: 63.2 µM (inactive)
GI50 [47]: > 100 µM (inactive)
GI50 [48]: 60.7 µM (inactive)
GI50 [49]: 51.3 µM (inactive)

Oc1[nH]c(NCc2ccc(Cl)cc2)nc2ncnc1-2
GI50 [1]: > 100 µM (inactive)
GI50 [2]: > 100 µM (inactive)
GI50 [3]: > 100 µM (inactive)
GI50 [4]: > 100 µM (inactive)
GI50 [5]: > 100 µM (inactive)
GI50 [6]: > 100 µM (inactive)
GI50 [7]: > 100 µM (inactive)
GI50 [8]: > 100 µM (inactive)
GI50 [10]: > 100 µM (inactive)
GI50 [11]: > 100 µM (inactive)
GI50 [12]: > 100 µM (inactive)
GI50 [13]: > 100 µM (inactive)
GI50 [14]: > 100 µM (inactive)
GI50 [15]: > 100 µM (inactive)
GI50 [16]: > 100 µM (inactive)
GI50 [17]: > 100 µM (inactive)
GI50 [50]: > 100 µM (inactive)
GI50 [18]: > 100 µM (inactive)
GI50 [19]: > 100 µM (inactive)
GI50 [20]: > 100 µM (inactive)
GI50 [51]: > 100 µM (inactive)
GI50 [52]: > 100 µM (inactive)
GI50 [21]: > 100 µM (inactive)
GI50 [22]: > 100 µM (inactive)
GI50 [23]: > 100 µM (inactive)
GI50 [24]: 30.3 µM (inactive)
GI50 [25]: > 100 µM (inactive)
GI50 [26]: > 100 µM (inactive)
GI50 [53]: > 100 µM (inactive)
GI50 [27]: 44.8 µM (inactive)
GI50 [28]: > 100 µM (inactive)
GI50 [29]: > 100 µM (inactive)
GI50 [30]: > 100 µM (inactive)
GI50 [31]: > 100 µM (inactive)
GI50 [32]: > 100 µM (inactive)
GI50 [33]: > 100 µM (inactive)
GI50 [34]: > 100 µM (inactive)
GI50 [35]: > 100 µM (inactive)
GI50 [36]: > 100 µM (inactive)
GI50 [37]: > 100 µM (inactive)
GI50 [54]: > 100 µM (inactive)
GI50 [38]: > 100 µM
GI50 [39]: > 100 µM (inactive)
GI50 [55]: > 100 µM (inactive)
GI50 [56]: > 100 µM (inactive)
GI50 [40]: > 100 µM (inactive)
GI50 [41]: > 100 µM (inactive)
GI50 [57]: > 100 µM (inactive)
GI50 [42]: > 100 µM (inactive)
GI50 [43]: 87.1 µM (inactive)
GI50 [44]: > 100 µM (inactive)
GI50 [45]: > 100 µM (inactive)
GI50 [46]: > 100 µM (inactive)
GI50 [47]: > 100 µM (inactive)
GI50 [48]: > 100 µM (inactive)
GI50 [49]: > 100 µM (inactive)

O=C1c2c(O)cc(O)cc2OC(c2ccc(O)cc2O)C1O (centres undefined)
GI50 [1]: > 100 µM (inactive)
GI50 [3]: > 100 µM (inactive)
GI50 [6]: > 100 µM (inactive)
GI50 [7]: > 100 µM (inactive)
GI50 [8]: > 100 µM (inactive)
GI50 [10]: > 100 µM (inactive)
GI50 [11]: > 100 µM (inactive)
GI50 [21]: > 100 µM (inactive)
GI50 [22]: > 100 µM (inactive)
GI50 [27]: > 100 µM (inactive)
GI50 [29]: > 100 µM (inactive)
GI50 [33]: > 100 µM (inactive)
GI50 [36]: > 100 µM (inactive)
GI50 [37]: > 100 µM (inactive)
GI50 [39]: > 100 µM (inactive)
GI50 [41]: > 100 µM (inactive)
GI50 [42]: > 100 µM (inactive)
GI50 [43]: > 100 µM (inactive)
GI50 [48]: > 100 µM (inactive)
